Assay results reported in US20230085307A1, “PYRIDAZINONE COMPOUND AND HERBICIDE” (NISSAN CHEMICAL CORPORATION, priority 2019, published 2023).

Legend:
Chinese sprangletop = assay: Test Example 3: herbicidal effect by foliage application, Wagner pot (Table 18, symbol D); type: in vivo, chinese sprangletop (Leptochloa chinensis); conditions: 320 g/ha
Procedure, shortened: (§1)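 Plants were sown in alluvial soil held under 0.1–0.5 cm standing water and grown 14 days in a greenhouse at 25–30 °C. An emulsifiable formulation, water-diluted to the set dose, was then sprayed onto the foliage, and effects were scored three weeks later using previously defined criteria.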

redroot pigweed [1] = assay: Test Example 5: herbicidal effect by foliage application, plastic box (Table 20, symbol N); type: in vivo, redroot pigweed (Amaranthus retroflexus); conditions: amount of applied herbicide 320 g/ha; foliage application after 14-day growth; evaluated three weeks after application
Procedure, shortened: (§2)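 Plants sown in sterilized diluvial soil and grown 14 days in a greenhouse at 25° C to 30° C, then sprayed on the foliage with the compound's emulsion diluted in water to a predetermined herbicide amount. Injury to weeds and crops scored three weeks after application on a visual rating scale.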

lambsquarters [2] = assay: Test Example 5: herbicidal effect by foliage application, plastic box (Table 20, symbol O); type: in vivo, lambsquarters (Chenopodium album); conditions: amount of applied herbicide 320 g/ha; foliage application after 14-day growth; evaluated three weeks after application
Procedure, shortened: as §2

wild oat [3] = assay: Test Example 4: herbicidal effect by soil treatment (Table 19, symbol I); type: in vivo, wild oat (Avena fatua); conditions: amount of applied herbicide 320 g/ha
Procedure, shortened: (§3)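 Seeds were sown in sterilized diluvial soil and covered with about 1.5 cm of soil. An emulsion formulation diluted with water to a predetermined herbicide amount was sprayed evenly onto the soil surface. Plants grew in a greenhouse at 25° C. to 30° C., and the effect was scored three weeks after application using criteria from an earlier test.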

windgrass [4] = assay: Test Example 5: herbicidal effect by foliage application, plastic box (Table 20, symbol L); type: in vivo, windgrass (Apera spica-venti); conditions: amount of applied herbicide 320 g/ha; foliage application after 14-day growth; evaluated three weeks after application
Procedure, shortened: as §2

barnyard grass [5] = assay: Test Example 3: herbicidal effect by foliage application, Wagner pot (Table 18, symbol H); type: in vivo, barnyard grass (Echinochloa crus-galli); conditions: 320 g/ha
Procedure, shortened: as §1

blackgrass [6] = assay: Test Example 4: herbicidal effect by soil treatment (Table 19, symbol J); type: in vivo, blackgrass (Alopecurus myosuroides); conditions: amount of applied herbicide 320 g/ha
Procedure, shortened: as §3

velvetleaf [7] = assay: Test Example 5: herbicidal effect by foliage application, plastic box (Table 20, symbol M); type: in vivo, velvetleaf (Abutilon theophrasti); conditions: amount of applied herbicide 320 g/ha; foliage application after 14-day growth; evaluated three weeks after application
Procedure, shortened: as §2

wild oat [8] = assay: Test Example 5: herbicidal effect by foliage application, plastic box (Table 20, symbol I); type: in vivo, wild oat (Avena fatua); conditions: amount of applied herbicide 320 g/ha; foliage application after 14-day growth; evaluated three weeks after application
Procedure, shortened: as §2

southern crabgrass [9] = assay: Test Example 5: herbicidal effect by foliage application, plastic box (Table 20, symbol F); type: in vivo, southern crabgrass (Digitaria ciliaris); conditions: amount of applied herbicide 320 g/ha; foliage application after 14-day growth; evaluated three weeks after application
Procedure, shortened: as §2

velvetleaf [10] = assay: Test Example 4: herbicidal effect by soil treatment (Table 19, symbol M); type: in vivo, velvetleaf (Abutilon theophrasti); conditions: amount of applied herbicide 320 g/ha
Procedure, shortened: as §3

oval-leafed pondweed = assay: Test Example 1: herbicidal activity, application before weed generation under submerged conditions (Table 16, symbol C); type: in vivo, oval-leafed pondweed (Monochoria vaginalis); conditions: amount of applied herbicide 320 g/ha
Procedure, shortened: (§4)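 Submerged Wagner pots (alluvial soil, 4 cm water) sown with weed seeds and planted with 2.5-leaf rice seedlings; emulsifiable concentrate diluted in water applied to water surface on sowing day. Held in greenhouse at 25-30 °C; injury scored 0-5 by herbicidal rate after three weeks.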

southern crabgrass [11] = assay: Test Example 4: herbicidal effect by soil treatment (Table 19, symbol F); type: in vivo, southern crabgrass (Digitaria ciliaris); conditions: amount of applied herbicide 320 g/ha
Procedure, shortened: as §3

Japanese bulrush = assay: Test Example 1: herbicidal activity, application before weed generation under submerged conditions (Table 16, symbol B); type: in vivo, Japanese bulrush (Schoenoplectus juncoides); conditions: amount of applied herbicide 320 g/ha
Procedure, shortened: as §4

green foxtail [12] = assay: Test Example 5: herbicidal effect by foliage application, plastic box (Table 20, symbol G); type: in vivo, green foxtail (Setaria viridis); conditions: amount of applied herbicide 320 g/ha; foliage application after 14-day growth; evaluated three weeks after application
Procedure, shortened: as §2

green foxtail [13] = assay: Test Example 4: herbicidal effect by soil treatment (Table 19, symbol G); type: in vivo, green foxtail (Setaria viridis); conditions: amount of applied herbicide 320 g/ha
Procedure, shortened: as §3

late watergrass = assay: Test Example 1: herbicidal activity, application before weed generation under submerged conditions (Table 16, symbol A); type: in vivo, late watergrass (Echinochloa oryzicola); conditions: amount of applied herbicide 320 g/ha
Procedure, shortened: as §4

persian speedwell [14] = assay: Test Example 5: herbicidal effect by foliage application, plastic box (Table 20, symbol R); type: in vivo, Persian speedwell (Veronica persica); conditions: amount of applied herbicide 320 g/ha; foliage application after 14-day growth; evaluated three weeks after application
Procedure, shortened: as §2

barnyard grass [15] = assay: Test Example 4: herbicidal effect by soil treatment (Table 19, symbol H); type: in vivo, barnyard grass (Echinochloa crus-galli); conditions: amount of applied herbicide 320 g/ha
Procedure, shortened: as §3

windgrass [16] = assay: Test Example 4: herbicidal effect by soil treatment (Table 19, symbol L); type: in vivo, windgrass (Apera spica-venti); conditions: amount of applied herbicide 320 g/ha
Procedure, shortened: as §3

chickweed [17] = assay: Test Example 4: herbicidal effect by soil treatment (Table 19, symbol P); type: in vivo, common chickweed (Stellaria media); conditions: amount of applied herbicide 320 g/ha
Procedure, shortened: as §3

rice flat sedge = assay: Test Example 3: herbicidal effect by foliage application, Wagner pot (Table 18, symbol E); type: in vivo, rice flat sedge (Cyperus iria); conditions: 320 g/ha
Procedure, shortened: as §1

Italian ryegrass [18] = assay: Test Example 5: herbicidal effect by foliage application, plastic box (Table 20, symbol K); type: in vivo, Italian ryegrass (Lolium multiflorum); conditions: amount of applied herbicide 320 g/ha; foliage application after 14-day growth; evaluated three weeks after application
Procedure, shortened: as §2

chickweed [19] = assay: Test Example 5: herbicidal effect by foliage application, plastic box (Table 20, symbol P); type: in vivo, common chickweed (Stellaria media); conditions: amount of applied herbicide 320 g/ha; foliage application after 14-day growth; evaluated three weeks after application
Procedure, shortened: as §2

redroot pigweed [20] = assay: Test Example 4: herbicidal effect by soil treatment (Table 19, symbol N); type: in vivo, redroot pigweed (Amaranthus retroflexus); conditions: amount of applied herbicide 320 g/ha
Procedure, shortened: as §3

blackgrass [21] = assay: Test Example 5: herbicidal effect by foliage application, plastic box (Table 20, symbol J); type: in vivo, blackgrass (Alopecurus myosuroides); conditions: amount of applied herbicide 320 g/ha; foliage application after 14-day growth; evaluated three weeks after application
Procedure, shortened: as §2

barnyard grass [22] = assay: Test Example 5: herbicidal effect by foliage application, plastic box (Table 20, symbol H); type: in vivo, barnyard grass (Echinochloa crus-galli); conditions: amount of applied herbicide 320 g/ha; foliage application after 14-day growth; evaluated three weeks after application
Procedure, shortened: as §2

persian speedwell [23] = assay: Test Example 4: herbicidal effect by soil treatment (Table 19, symbol R); type: in vivo, Persian speedwell (Veronica persica); conditions: amount of applied herbicide 320 g/ha
Procedure, shortened: as §3

Italian ryegrass [24] = assay: Test Example 4: herbicidal effect by soil treatment (Table 19, symbol K); type: in vivo, Italian ryegrass (Lolium multiflorum); conditions: amount of applied herbicide 320 g/ha
Procedure, shortened: as §3

lambsquarters [25] = assay: Test Example 4: herbicidal effect by soil treatment (Table 19, symbol O); type: in vivo, lambsquarters (Chenopodium album); conditions: amount of applied herbicide 320 g/ha
Procedure, shortened: as §3

SMILES	herbicidal effect on Chinese sprangletop (D) (Chinese sprangletop)	Herbicidal effect by foliage application, N: redroot pigweed (redroot pigweed [1])	Herbicidal effect by foliage application, O: lambsquarters (lambsquarters [2])	Herbicidal effect by foliage application, L: windgrass (windgrass [4])	herbicidal effect on barnyard grass (H) (barnyard grass [5])	Herbicidal effect by foliage application, M: velvetleaf (velvetleaf [7])	Herbicidal effect by foliage application, I: wild oat (wild oat [8])	Herbicidal effect by foliage application, F: southern crabgrass (southern crabgrass [9])	Herbicidal effect, C: oval-leafed pondweed (oval-leafed pondweed)	Herbicidal effect, B: Japanese bulrush (Japanese bulrush)	Herbicidal effect by foliage application, G: green foxtail (green foxtail [12])	Herbicidal effect, A: late watergrass (late watergrass)	Herbicidal effect by foliage application, R: persian speedwell (persian speedwell [14])	herbicidal effect on rice flat sedge (E) (rice flat sedge)	Herbicidal effect by foliage application, K: Italian ryegrass (Italian ryegrass [18])	Herbicidal effect by foliage application, P: chickweed (chickweed [19])	Herbicidal effect by foliage application, J: blackgrass (blackgrass [21])	Herbicidal effect by foliage application, H: barnyard grass (barnyard grass [22])	also measured
CCCC(=O)Oc1c(C)nn(C)c(=O)c1-c1c(-c2ccc(OC(F)(F)F)cc2)sc2c(Cl)cccc12 [4-079]	2 (Herbicidal rate of 20% or more and less than 40%)	3 (Herbicidal rate of 40% or more and less than 70%)	3 (Herbicidal rate of 40% or more and less than 70%)	3 (Herbicidal rate of 40% or more and less than 70%)	2 (Herbicidal rate of 20% or more and less than 40%)	4 (Herbicidal rate of 70% or more and less than 90%)	0 (Herbicidal rate of 5% or less (almost no effect))	0 (Herbicidal rate of 5% or less (almost no effect))	0 (Herbicidal rate of 5% or less (almost no effect))	0 (Herbicidal rate of 5% or less (almost no effect))	0 (Herbicidal rate of 5% or less (almost no effect))	2 (Herbicidal rate of 20% or more and less than 40%)	5 (Herbicidal rate of 90% or more (almost completely withered))	2 (Herbicidal rate of 20% or more and less than 40%)	0 (Herbicidal rate of 5% or less (almost no effect))	5 (Herbicidal rate of 90% or more (almost completely withered))	0 (Herbicidal rate of 5% or less (almost no effect))	0 (Herbicidal rate of 5% or less (almost no effect))	Herbicidal effect by soil treatment, I: wild oat (wild oat [3]): 0 (Herbicidal rate of 5% or less (almost no effect)); Herbicidal effect by soil treatment, J: blackgrass (blackgrass [6]): 0 (Herbicidal rate of 5% or less (almost no effect)); Herbicidal effect by soil treatment, M: velvetleaf (velvetleaf [10]): 0 (Herbicidal rate of 5% or less (almost no effect)); Herbicidal effect by soil treatment, F: southern crabgrass (southern crabgrass [11]): 0 (Herbicidal rate of 5% or less (almost no effect)); Herbicidal effect by soil treatment, G: green foxtail (green foxtail [13]): 0 (Herbicidal rate of 5% or less (almost no effect)); Herbicidal effect by soil treatment, H: barnyard grass (barnyard grass [15]): 0 (Herbicidal rate of 5% or less (almost no effect)); Herbicidal effect by soil treatment, L: windgrass (windgrass [16]): 0 (Herbicidal rate of 5% or less (almost no effect)); Herbicidal effect by soil treatment, P: chickweed (chickweed [17]): 0 (Herbicidal rate of 5% or less (almost no effect)); Herbicidal effect by soil treatment, N: redroot pigweed (redroot pigweed [20]): 2 (Herbicidal rate of 20% or more and less than 40%); Herbicidal effect by soil treatment, R: persian speedwell (persian speedwell [23]): 3 (Herbicidal rate of 40% or more and less than 70%); Herbicidal effect by soil treatment, K: Italian ryegrass (Italian ryegrass [24]): 0 (Herbicidal rate of 5% or less (almost no effect)); Herbicidal effect by soil treatment, O: lambsquarters (lambsquarters [25]): 0 (Herbicidal rate of 5% or less (almost no effect))
CCCC(=O)Oc1c(C)nn(C)c(=O)c1-c1c(-c2ccc(OC)cc2)sc2cc(F)c(F)cc12 [5-015]	2 (Herbicidal rate of 20% or more and less than 40%)	5 (Herbicidal rate of 90% or more (almost completely withered))	5 (Herbicidal rate of 90% or more (almost completely withered))	0 (Herbicidal rate of 5% or less (almost no effect))	2 (Herbicidal rate of 20% or more and less than 40%)	4 (Herbicidal rate of 70% or more and less than 90%)	0 (Herbicidal rate of 5% or less (almost no effect))	0 (Herbicidal rate of 5% or less (almost no effect))	0 (Herbicidal rate of 5% or less (almost no effect))	0 (Herbicidal rate of 5% or less (almost no effect))	0 (Herbicidal rate of 5% or less (almost no effect))	3 (Herbicidal rate of 40% or more and less than 70%)	5 (Herbicidal rate of 90% or more (almost completely withered))	3 (Herbicidal rate of 40% or more and less than 70%)	0 (Herbicidal rate of 5% or less (almost no effect))	5 (Herbicidal rate of 90% or more (almost completely withered))	0 (Herbicidal rate of 5% or less (almost no effect))	0 (Herbicidal rate of 5% or less (almost no effect))	I: wild oat, herbicidal effect grade (wild oat [3]): 0 (Herbicidal rate of 5% or less (almost no effect)); J: blackgrass, herbicidal effect grade (blackgrass [6]): 0 (Herbicidal rate of 5% or less (almost no effect)); M: velvetleaf, herbicidal effect grade (velvetleaf [10]): 0 (Herbicidal rate of 5% or less (almost no effect)); F: southern crabgrass, herbicidal effect grade (southern crabgrass [11]): 0 (Herbicidal rate of 5% or less (almost no effect)); G: green foxtail, herbicidal effect grade (green foxtail [13]): 0 (Herbicidal rate of 5% or less (almost no effect)); H: barnyard grass, herbicidal effect grade (barnyard grass [15]): 0 (Herbicidal rate of 5% or less (almost no effect)); L: windgrass, herbicidal effect grade (windgrass [16]): 0 (Herbicidal rate of 5% or less (almost no effect)); P: chickweed, herbicidal effect grade (chickweed [17]): 3 (Herbicidal rate of 40% or more and less than 70%); N: redroot pigweed, herbicidal effect grade (redroot pigweed [20]): 4 (Herbicidal rate of 70% or more and less than 90%); R: persian speedwell, herbicidal effect grade (persian speedwell [23]): 5 (Herbicidal rate of 90% or more (almost completely withered)); K: Italian ryegrass, herbicidal effect grade (Italian ryegrass [24]): 0 (Herbicidal rate of 5% or less (almost no effect)); O: lambsquarters, herbicidal effect grade (lambsquarters [25]): 4 (Herbicidal rate of 70% or more and less than 90%)
